# Data published in ChEMBL document CHEMBL1201862, “PubChem BioAssay data set” (2004).
#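 How tested: cells in 96-well plates exposed to compound for 48 hours at five concentrations. GI50: concentration for 50% inhibition of growth.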 The source made the active and inactive calls. Cut-off read from the data, not from the text of the source: active = GI50 up to about 1.1 µM and inactive = higher.
# How the values were obtained:
# Experiment in all cases: NCI anticancer screen, dose series, 48 h
# 786-0 = tested on: 786-0
# A498 = tested on: A498
# A549 = tested on: A549
# BT-549 = tested on: BT-549
# CAKI-1 = tested on: CAKI-1
# CCRF-CEM = tested on: CCRF-CEM
# COLO 205 = tested on: COLO 205
# DU-145 = tested on: DU-145
# EKVX = tested on: EKVX
# HCC 2998 = tested on: HCC 2998
# HCT-116 = tested on: HCT-116
# HCT-15 = tested on: HCT-15
# HL-60 = tested on: HL-60
# HOP-62 = tested on: HOP-62
# HT-29 = tested on: HT-29
# Hs-578T = tested on: Hs-578T
# IGROV-1 = tested on: IGROV-1
# K562 = tested on: K562
# M14 = tested on: M14
# MCF7 = tested on: MCF7
# MDA-MB-231 = tested on: MDA-MB-231
# MDA-MB-435 = tested on: MDA-MB-435
# MDA-N = tested on: MDA-N
# MOLT-4 = tested on: MOLT-4
# Malme-3M = tested on: Malme-3M
# NCI-H226 = tested on: NCI-H226
# NCI-H23 = tested on: NCI-H23
# NCI-H460 = tested on: NCI-H460
# NCI-H522 = tested on: NCI-H522
# NCI/ADR-RES = tested on: NCI/ADR-RES
# OVCAR-3 = tested on: OVCAR-3
# OVCAR-4 = tested on: OVCAR-4
# OVCAR-5 = tested on: OVCAR-5
# OVCAR-8 = tested on: OVCAR-8
# PC-3 = tested on: PC-3
# RXF 393 = tested on: RXF 393
# SF-268 = tested on: SF-268
# SF-295 = tested on: SF-295
# SF-539 = tested on: SF-539
# SK-MEL-2 = tested on: SK-MEL-2
# SK-MEL-5 = tested on: SK-MEL-5
# SK-OV-3 = tested on: SK-OV-3
# SN12C = tested on: SN12C
# SNB-75 = tested on: SNB-75
# T47D = tested on: T47D
# TK-10 = tested on: TK-10
# U-251 = tested on: U-251
# UACC-257 = tested on: UACC-257
# UACC-62 = tested on: UACC-62
# ACHN = tested on: ACHN
# HOP-92 = tested on: HOP-92
# KM12 = tested on: KM12
# LOX IMVI = tested on: LOX IMVI
# RPMI-8226 = tested on: RPMI-8226
# SK-MEL-28 = tested on: SK-MEL-28
# SNB-19 = tested on: SNB-19
# SW-620 = tested on: SW-620
# UO-31 = tested on: UO-31
structure (smiles),measurement,setting,value
c1ccc2nn(C3CCCO3)nc2c1 (stereo unspecified),GI50,786-0,> 100 µM (inactive)
same,GI50,A498,> 100 µM (inactive)
same,GI50,A549,> 100 µM (inactive)
same,GI50,BT-549,> 100 µM (inactive)
same,GI50,CAKI-1,> 100 µM (inactive)
same,GI50,CCRF-CEM,> 100 µM (inactive)
same,GI50,COLO 205,> 100 µM (inactive)
same,GI50,DU-145,> 100 µM (inactive)
same,GI50,EKVX,> 100 µM (inactive)
same,GI50,HCC 2998,> 100 µM (inactive)
same,GI50,HCT-116,> 100 µM (inactive)
same,GI50,HCT-15,> 100 µM
same,GI50,HL-60,> 100 µM (inactive)
same,GI50,HOP-62,> 100 µM (inactive)
same,GI50,HT-29,> 100 µM (inactive)
same,GI50,Hs-578T,> 100 µM (inactive)
same,GI50,IGROV-1,> 100 µM (inactive)
same,GI50,K562,> 100 µM (inactive)
same,GI50,M14,> 100 µM (inactive)
same,GI50,MCF7,> 100 µM (inactive)
same,GI50,MDA-MB-231,> 100 µM (inactive)
same,GI50,MDA-MB-435,> 100 µM (inactive)
same,GI50,MDA-N,> 100 µM (inactive)
same,GI50,MOLT-4,> 100 µM (inactive)
same,GI50,Malme-3M,> 100 µM (inactive)
same,GI50,NCI-H226,> 100 µM (inactive)
same,GI50,NCI-H23,> 100 µM (inactive)
same,GI50,NCI-H460,> 100 µM (inactive)
same,GI50,NCI-H522,> 100 µM (inactive)
same,GI50,NCI/ADR-RES,> 100 µM (inactive)
same,GI50,OVCAR-3,> 100 µM (inactive)
same,GI50,OVCAR-4,> 100 µM (inactive)
same,GI50,OVCAR-5,> 100 µM (inactive)
same,GI50,OVCAR-8,> 100 µM (inactive)
same,GI50,PC-3,> 100 µM (inactive)
same,GI50,RXF 393,> 100 µM (inactive)
same,GI50,SF-268,> 100 µM (inactive)
same,GI50,SF-295,> 100 µM (inactive)
same,GI50,SF-539,> 100 µM (inactive)
same,GI50,SK-MEL-2,> 100 µM (inactive)
same,GI50,SK-MEL-5,> 100 µM (inactive)
same,GI50,SK-OV-3,> 100 µM (inactive)
same,GI50,SN12C,> 100 µM (inactive)
same,GI50,SNB-75,> 100 µM (inactive)
same,GI50,T47D,> 100 µM (inactive)
same,GI50,TK-10,> 100 µM (inactive)
same,GI50,U-251,> 100 µM (inactive)
same,GI50,UACC-257,> 100 µM (inactive)
same,GI50,UACC-62,> 100 µM (inactive)
COC(=O)C(Cc1ccc(Oc2cc(CC(NC(=O)c3ccccc3)C(=O)OC)ccc2OC)cc1)NC(=O)c1ccccc1 (stereo unspecified),GI50,786-0,7.83 µM (inactive)
same,GI50,A498,46.3 µM (inactive)
same,GI50,A549,25.7 µM (inactive)
same,GI50,ACHN,6.82 µM (inactive)
same,GI50,BT-549,26.7 µM (inactive)
same,GI50,CAKI-1,54.8 µM (inactive)
same,GI50,COLO 205,27 µM (inactive)
same,GI50,DU-145,16.9 µM (inactive)
same,GI50,EKVX,29.8 µM (inactive)
same,GI50,HCC 2998,13.5 µM (inactive)
same,GI50,HCT-116,30.3 µM (inactive)
same,GI50,HCT-15,28.7 µM
same,GI50,HL-60,3.82 µM (inactive)
same,GI50,HOP-62,38.3 µM (inactive)
same,GI50,HOP-92,21.6 µM (inactive)
same,GI50,HT-29,26.6 µM (inactive)
same,GI50,Hs-578T,23 µM (inactive)
same,GI50,IGROV-1,6.3 µM (inactive)
same,GI50,K562,2.01 µM (inactive)
same,GI50,KM12,37.5 µM (inactive)
same,GI50,LOX IMVI,8.26 µM (inactive)
same,GI50,M14,6.95 µM (inactive)
same,GI50,MCF7,16.6 µM (inactive)
same,GI50,MDA-MB-231,21.9 µM (inactive)
same,GI50,MDA-MB-435,18.4 µM (inactive)
same,GI50,MDA-N,14.2 µM (inactive)
same,GI50,MOLT-4,0.948 µM (active)
same,GI50,Malme-3M,15.2 µM (inactive)
same,GI50,NCI-H226,27.5 µM (inactive)
same,GI50,NCI-H23,22.9 µM (inactive)
same,GI50,NCI-H460,22.8 µM (inactive)
same,GI50,NCI-H522,7.29 µM (inactive)
same,GI50,NCI/ADR-RES,35.2 µM (inactive)
same,GI50,OVCAR-3,24.7 µM (inactive)
same,GI50,OVCAR-4,26.4 µM (inactive)
same,GI50,OVCAR-5,> 100 µM (inactive)
same,GI50,OVCAR-8,10.7 µM (inactive)
same,GI50,PC-3,22.7 µM (inactive)
same,GI50,RPMI-8226,3.03 µM (inactive)
same,GI50,RXF 393,14.7 µM (inactive)
same,GI50,SF-268,19.7 µM (inactive)
same,GI50,SF-295,> 77.6 µM (inactive)
same,GI50,SF-539,30.1 µM (inactive)
same,GI50,SK-MEL-28,8.49 µM (inactive)
same,GI50,SK-MEL-2,14.5 µM (inactive)
same,GI50,SK-MEL-5,18.2 µM (inactive)
same,GI50,SK-OV-3,> 84.9 µM (inactive)
same,GI50,SN12C,6.64 µM (inactive)
same,GI50,SNB-19,35.5 µM (inactive)
same,GI50,SNB-75,29.7 µM (inactive)
same,GI50,SW-620,39.3 µM (inactive)
same,GI50,T47D,6.04 µM (inactive)
same,GI50,TK-10,7.53 µM (inactive)
same,GI50,U-251,32.8 µM (inactive)
same,GI50,UACC-257,7.35 µM (inactive)
same,GI50,UACC-62,17.9 µM (inactive)
same,GI50,UO-31,9.59 µM (inactive)
